Where a name gives a salt, the structure may show the parent alone. Read-outs that look alike come from different tables or passages of the source.
Experiments:
[1] = Phase 1a single ascending dose study: UV-4 plasma concentrations and PK parameters (LC-MS/MS, noncompartmental); assay type: in vivo; details: for Tmax: median; for AUC(0-t) / Vd/F / AUC(0-inf): both sexes, human, plasma, po; for AUC(0-t): read-out: AUC(0-8); for Vd/F: read-out: Vz/F; for AUC(0-inf): read-out: AUC(0-inf)
Description: UV-4 ((2R,3R,4R,5S)-2-(hydroxymethyl)-1-(9-methoxynonyl)piperidine-3,4,5-triol, also called N-(9’-methoxynonyl)-1-deoxynojirimycin, or MON-DNJ) hydrochloride was evaluated in a first-in-human, randomized, single-center, double-blind, placebo-controlled, parallel group, single ascending dose Phase 1a clinical trial in healthy subjects (Figs 1 and 2, ClinicalTrials.gov Identifier NCT02061358 https://clinicaltrials.gov/ct2/show/NCT02061358). The primary objective was to determine the safety and tolerability of a single-ascending oral dose of UV-4 hydrochloride (Fig 3). […] The secondary objective was to determine PK parameters describing absorption and elimination of UV-4 following a single oral dose of UV-4 hydrochloride. Eight cohorts of eight subjects each were enrolled and completed the study. In each cohort, six subjects received UV-4 as the hydrochloride; two received placebo. Subjects were screened against study eligibility criteria up to four weeks (Days -28 to -2) before admission to the clinic (Day -1). Dosing was performed on an inpatient basis. Subjects remained in clinic for 48 hours post-dosing for PK sample collection and safety assessments and were discharged from the clinic on Day 3. Subjects returned to the clinic on Day 4 for additional safety assessments, then again on Day 9 ± 1 for a final follow-up visit.
Eligible subjects were healthy males and females, age 18–45 years, with a body mass index between 18 and 30 kg/m^2 inclusive and a minimum body weight of 60 kg. Subjects were considered healthy based on medical history, physical exam, vital signs, 12-lead electrocardiogram (ECG), clinical laboratory tests (hematology, blood chemistry, urinalysis), viral serology, and drug and alcohol screening. Male and female subjects of childbearing potential were required to use adequate contraception over the course of the clinical trial. […] Only subjects who met all inclusion and none of the exclusion criteria prior to administration of the investigational product were enrolled into the study (no exemptions were granted). A total of 64 subjects were enrolled (eight cohorts of eight subjects each). In each of the eight cohorts, six subjects were randomized to receive a single dose of UV-4 (3 to 1000 mg, depending on cohort) as the hydrochloride salt, and two subjects to receive placebo. Cohort size of six active subjects was based on analysis that increasing cohort size above six in a first-in-human study gains little in the ability to observe a drug induced event, and results in observing more events that are not related to study drug. Two of the eight subjects in each cohort (sentinel subjects; one active and one placebo) received their doses at least 48 h before the remaining subjects in each cohort.
On each day of use, bulk drug substance (UV-4B for solubilization, SAI Life Sciences Ltd. Telangana, India) was removed from a single-use container, weighed at the study center, and solubilized in 20 mL sterile water for injection (SWFI) (Hospira Inc. Illinois, United States of America). Weight of solid drug substance was converted to dose of UV-4 by applying purity and salt correction factor per pharmacy manual when preparing the dosing solution. UV-4B solution was administered orally with 10 mL of taste-masking agent, OraSweet-SF (Paddock Laboratories LLC, Minneapolis, United States of America) in a total volume of 30 mL, to assist in maintaining study blinding. Placebo was SWFI (20 mL) plus OraSweet-SF (10 mL). Concentrations and doses were calculated and expressed as the active free base form, UV-4. This methodology is consistent with USP<1121>, which recommends that the strength of a drug product or preparation is expressed in terms of the active moiety. Following consumption of active or placebo solution, the dosing container was rinsed with 50 mL of tap water also consumed by subjects. […]

[2] = animal studies; cited from earlier work
[3] = 720 mg single oral dose, Ar Mean
[4] = 720 mg single oral dose, Geo Mean
[5] = 1000 mg single oral dose, Ar Mean
[6] = 1000 mg single oral dose, Geo Mean
[7] = 3 mg, 3 mg single oral dose, Ar Mean
[8] = 3 mg, 3 mg single oral dose, Geo Mean
[9] = 10 mg, 10 mg single oral dose, Ar Mean
[10] = 10 mg, 10 mg single oral dose, Geo Mean
[11] = 30 mg, 30 mg single oral dose, Ar Mean
[12] = 30 mg, 30 mg single oral dose, Geo Mean
[13] = 90 mg, 90 mg single oral dose, Ar Mean
[14] = 90 mg, 90 mg single oral dose, Geo Mean
[15] = 180 mg, 180 mg single oral dose, Ar Mean
[16] = 180 mg, 180 mg single oral dose, Geo Mean
[17] = 360 mg, 360 mg single oral dose, Ar Mean
[18] = 360 mg, 360 mg single oral dose, Geo Mean
[19] = 720 mg, 720 mg single oral dose, Ar Mean
[20] = 720 mg, 720 mg single oral dose, Geo Mean
[21] = 1000 mg, 1000 mg single oral dose, Ar Mean
[22] = 1000 mg, 1000 mg single oral dose, Geo Mean

In the case of COCCCCCCCCCN1C[C@H](O)[C@@H](O)[C@H](O)[C@H]1CO [UV-4B, N-(9’-methoxynonyl)-1-deoxynojirimycin hydrochloride], the Cmax [1, 3] is reported as 9930 ng/mL, the “DNAUC(0-inf)” value [1, 3] is reported as 45.7 ng·h/mL/mg and the DNCmax [1, 3] is reported as 13.8 ng/mL/mg. It also gave a t1/2 [1, 3] of 8.19 h, a CL/F [1, 4] of 22.0 L/h and a Cmax [1, 4] of 9760 ng/mL. For the same compound, the “DNAUC(0-inf)” value [1, 4] was 45.5 ng·h/mL/mg, the DNCmax [1, 4] was 13.6 ng/mL/mg and the t1/2 [1, 4] was 8.18 h. The Tmax ([1]; 720 mg single oral dose) was 0.75 h, the CL/F [1, 5] was 23.6 L/h and the Cmax [1, 5] was 13100 ng/mL. The “DNAUC(0-inf)” value [1, 5] was 43.1 ng·h/mL/mg, the DNCmax [1, 5] was 13.1 ng/mL/mg and the t1/2 [1, 5] was 8.83 h. For the same compound, the CL/F [1, 6] was 23.4 L/h, the Cmax [1, 6] was 13000 ng/mL and the “DNAUC(0-inf)” value [1, 6] was 42.8 ng·h/mL/mg. The DNCmax [1, 6] was 13.0 ng/mL/mg, the t1/2 [1, 6] was 8.58 h and the Tmax ([1]; 1000 mg single oral dose) was 1.00 h. It also gave an AUC(0-t) [1, 7] of 56.5 ng·h/mL, a Vd/F [1, 7] of 491 L and an AUC(0-t) [1, 8] of 55.9 ng·h/mL. For the same compound, the AUC(0-inf) [1, 8] was 94.6 ng·h/mL, the Vd/F [1, 8] was 470 L and the AUC(0-t) [1, 9] was 271 ng·h/mL. The AUC(0-inf) [1, 9] was 431 ng·h/mL, the Vd/F [1, 9] was 424 L and the AUC(0-t) [1, 10] was 265 ng·h/mL. For the same compound, the AUC(0-inf) [1, 10] was 420 ng·h/mL, the Vd/F [1, 10] was 409 L and the AUC(0-t) [1, 11] was 901 ng·h/mL. The AUC(0-inf) [1, 11] was 1260 ng·h/mL, the Vd/F [1, 11] was 349 L and the AUC(0-t) [1, 12] was 896 ng·h/mL. For the same compound, the AUC(0-inf) [1, 12] was 1260 ng·h/mL, the Vd/F [1, 12] was 344 L and the AUC(0-t) [1, 13] was 2800 ng·h/mL. It also gave an AUC(0-inf) [1, 13] of 3730 ng·h/mL, a Vd/F [1, 13] of 365 L and an AUC(0-t) [1, 14] of 2790 ng·h/mL. For the same compound, the AUC(0-inf) [1, 14] was 3700 ng·h/mL, the Vd/F [1, 14] was 358 L and the AUC(0-t) [1, 15] was 5910 ng·h/mL. For the same compound, the AUC(0-inf) [1, 15] was 7110 ng·h/mL, the Vd/F [1, 15] was 321 L and the AUC(0-t) [1, 16] was 5880 ng·h/mL. It also gave an AUC(0-inf) [1, 16] of 7090 ng·h/mL, a Vd/F [1, 16] of 317 L and an AUC(0-t) [1, 17] of 11900 ng·h/mL. The AUC(0-inf) [1, 17] was 13800 ng·h/mL, the Vd/F [1, 17] was 309 L and the AUC(0-t) [1, 18] was 11800 ng·h/mL. The AUC(0-inf) [1, 18] was 13700 ng·h/mL, the Vd/F [1, 18] was 308 L and the AUC(0-t) [1, 19] was 29100 ng·h/mL. For the same compound, the AUC(0-inf) [1, 19] was 32900 ng·h/mL, the Vd/F [1, 19] was 260 L and the AUC(0-t) [1, 20] was 28900 ng·h/mL. For the same compound, the AUC(0-inf) [1, 20] was 32800 ng·h/mL, the Vd/F [1, 20] was 259 L and the AUC(0-t) [1, 21] was 38700 ng·h/mL. For the same compound, the AUC(0-inf) [1, 21] was 43100 ng·h/mL, the Vd/F [1, 21] was 299 L and the AUC(0-t) [1, 22] was 38500 ng·h/mL. For the same compound, the AUC(0-inf) [1, 22] was 42800 ng·h/mL, the Vd/F [1, 22] was 290 L and the “Bioavailability of the hydrochloride salt” value [2] was “high bioavailability”.

— paper PMC9387934, “Randomized single oral dose phase 1 study of safety, tolerability, and pharmacokinetics of Iminosugar UV-4 Hydrochloride (UV-4B) in healthy subjects” (PLoS Neglected Tropical Diseases, 2022)
